Read-outs that look alike come from different tables or passages of the source.
Key:
[1] = molecular target: tau protein aggregate (Homo sapiens, UniProt P10636); conditions: tau 0.37 μmol/L, incubated 1 to 1.5 hours, PD-10 column
Method: Mixed solutions of a tau protein aggregate (final concentration 0.37 μmol/L, prepared in Example 9) or an non-aggregated tau protein (final concentration 0.37 μmol/L) and radioactive iodine-labeled compound 1 (2.0 kBq (0.055 μCi)), radioactive iodine-labeled compound 2 (20 kBq (0.55 μCi)) or radioactive iodine-labeled form 3 (2.0 kBq (0.055 μCi)) were incubated for 1 hour to 1.5 hours, and then subjected to size exclusion chromatography (PD-10 column (GE Healthcare Japan), eluent: phosphate buffered-saline (PBS)). Subsequently, the radioactivity of an eluted fraction of the tau protein aggregate or the non-aggregated tau protein was measured in a γ counter.

[2] = mice
Method: Mice were decapitated after 2, 10, 30, and 60 minutes, and then each organ was then removed after blood collection, and radiation counts were measured in a γ counter.

[3] = molecular target: T1, Aβ42 aggregate (Homo sapiens, UniProt P05067); assay: Evaluation experiment of binding to amyloid β (filter radioactivity); conditions: Aβ42 aggregate 30 nmol/L, incubation 3 hours
T1 construct: Aβ (1-42) peptide; purchased Peptide Institute, Inc
Method: 0.5 mg of Aβ (1-42) peptide (purchased from Peptide Institute, Inc.) was dissolved in 2 mL of a PBS buffer containing 1 mmol/L of EDTA and incubated at 37° C. for 42 hours, thus preparing an Aβ42 aggregate. A glass tube was charged with a 10 vol % ethanol aqueous solution (900 μL), Aβ42 aggregate (50 μL, final concentration 30 nmol/L), and radioactive iodine-labeled compound 1, radioactive iodine-labeled compound 2, or radioactive iodine-labeled compound 3 (each 50 μL, 0.018-0.097 μCi), and incubation was carried out for 3 hours. B/F separation was carried out using a cell harvester (Brandel, M-24), and the radioactivity on the filter was measured in a γ counter. The proportion (%) of the radioactivity count on the filter relative to the radioactivity count of each sample used was determined, and binding of each compound to the Aβ42 aggregate was evaluated.
As a control, 4-dimethylamino-4′-iodochalcone (hereinafter, called a chalcone derivative) was prepared in accordance with a method described in the literature (Ono et al., Bioorg Med Chem, 15, 6802-6809, 2007), and the same experiment was carried out (radioactivity count in sample: […]-0.37 kBq (0.023-0.01 μCi)).

[4] = 2 minutes after tail vein administration
[5] = 10 minutes after tail vein administration
[6] = 30 minutes after tail vein administration
[7] = 60 minutes after tail vein administration

T1 sequence (P05067 672-713 limits assumed): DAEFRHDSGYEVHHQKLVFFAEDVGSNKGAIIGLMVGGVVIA
tau protein aggregate, sequence (P10636 1-441 isoform P10636-8): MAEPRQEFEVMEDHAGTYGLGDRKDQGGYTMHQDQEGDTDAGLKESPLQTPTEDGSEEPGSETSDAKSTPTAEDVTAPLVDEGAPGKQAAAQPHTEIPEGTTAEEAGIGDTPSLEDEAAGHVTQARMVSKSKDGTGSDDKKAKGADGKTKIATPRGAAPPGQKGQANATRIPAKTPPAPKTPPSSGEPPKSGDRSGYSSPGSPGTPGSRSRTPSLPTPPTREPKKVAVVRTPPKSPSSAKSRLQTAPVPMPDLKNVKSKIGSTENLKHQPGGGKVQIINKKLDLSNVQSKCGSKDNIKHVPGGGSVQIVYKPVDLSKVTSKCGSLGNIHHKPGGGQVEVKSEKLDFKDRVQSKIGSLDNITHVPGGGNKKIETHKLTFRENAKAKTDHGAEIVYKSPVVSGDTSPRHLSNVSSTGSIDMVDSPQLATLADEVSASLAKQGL

CCOC(=O)CN1C(=O)/C(=C/c2ccc(-c3cccc([125I])c3)o2)SC1=S [Radioactive iodine-labeled compound 1, (Z)-Ethyl-2-(5-((5-(3-(^125I)iodophenyl)furan-2-yl)methylene)-4-oxo-2-thioxothiazolidin-3-yl) acetate]
Radioactivity of eluted fraction: aggregated tau vs non aggregated tau vs buffer [1]: specifically binding to a tau protein aggregate
Amount of radioactivity in organ: Blood [2, 4]: 6.70 ± 0.53 % ID/g
Amount of radioactivity in organ: Blood [2, 5]: 3.58 ± 0.37 % ID/g
Amount of radioactivity in organ: Blood [2, 6]: 2.27 ± 0.44 % ID/g
Amount of radioactivity in organ: Blood [2, 7]: 1.59 ± 0.14 % ID/g
Amount of radioactivity in organ: Brain [2, 4]: 0.23 ± 0.02 % ID/g
Amount of radioactivity in organ: Brain [2, 5]: 0.16 ± 0.01 % ID/g
Amount of radioactivity in organ: Brain [2, 6]: 0.15 ± 0.03 % ID/g
Amount of radioactivity in organ: Brain [2, 7]: 0.11 ± 0.02 % ID/g
Amount of radioactivity in organ: Heart [2, 4]: 9.41 ± 0.49 % ID/g
Amount of radioactivity in organ: Heart [2, 5]: 5.05 ± 0.39 % ID/g
Amount of radioactivity in organ: Heart [2, 6]: 2.38 ± 0.38 % ID/g
Amount of radioactivity in organ: Heart [2, 7]: 1.39 ± 0.19 % ID/g
Amount of radioactivity in organ: Intestine [2, 4]: 1.77 ± 0.33 % ID/g
Amount of radioactivity in organ: Intestine [2, 5]: 7.97 ± 1.24 % ID/g
Amount of radioactivity in organ: Intestine [2, 6]: 15.1 ± 1.82 % ID/g
Amount of radioactivity in organ: Intestine [2, 7]: 21.0 ± 2.73 % ID/g
Amount of radioactivity in organ: Kidney [2, 4]: 8.50 ± 0.83 % ID/g
Amount of radioactivity in organ: Kidney [2, 5]: 7.64 ± 0.69 % ID/g
Amount of radioactivity in organ: Kidney [2, 6]: 6.42 ± 1.17 % ID/g
Amount of radioactivity in organ: Kidney [2, 7]: 3.91 ± 0.18 % ID/g
Amount of radioactivity in organ: Liver [2, 4]: 43.1 ± 2.07 % ID/g
Amount of radioactivity in organ: Liver [2, 5]: 29.5 ± 2.17 % ID/g
Amount of radioactivity in organ: Liver [2, 6]: 14.7 ± 2.27 % ID/g
Amount of radioactivity in organ: Liver [2, 7]: 11.3 ± 0.87 % ID/g
Amount of radioactivity in organ: Lung [2, 4]: 13.6 ± 1.00 % ID/g
Amount of radioactivity in organ: Lung [2, 5]: 4.44 ± 0.52 % ID/g
Amount of radioactivity in organ: Lung [2, 6]: 2.31 ± 0.46 % ID/g
Amount of radioactivity in organ: Lung [2, 7]: 1.56 ± 0.22 % ID/g
Amount of radioactivity in organ: Pancreas [2, 4]: 1.74 ± 0.19 % ID/g
Amount of radioactivity in organ: Pancreas [2, 5]: 1.75 ± 0.18 % ID/g
Amount of radioactivity in organ: Pancreas [2, 6]: 1.16 ± 0.17 % ID/g
Amount of radioactivity in organ: Pancreas [2, 7]: 0.73 ± 0.08 % ID/g
Amount of radioactivity in organ: Spleen [2, 4]: 6.70 ± 0.54 % ID/g
Amount of radioactivity in organ: Spleen [2, 5]: 4.11 ± 0.80 % ID/g
Amount of radioactivity in organ: Spleen [2, 6]: 2.66 ± 0.84 % ID/g
Amount of radioactivity in organ: Spleen [2, 7]: 1.94 ± 0.40 % ID/g
Amount of radioactivity in organ: Stomach [2, 4]: 0.75 ± 0.17 % ID/g
Amount of radioactivity in organ: Stomach [2, 5]: 1.53 ± 0.44 % ID/g
Amount of radioactivity in organ: Stomach [2, 6]: 3.65 ± 0.78 % ID/g
Amount of radioactivity in organ: Stomach [2, 7]: 4.51 ± 0.38 % ID/g
Binding to the Aβ42 aggregate (proportion of radioactivity count on the filter) [3]: significantly lower

CCOC(=O)CN1C(=O)/C(=C/c2ccc(-c3cccc([125I])c3)o2)NC1=S [Radioactive iodine-labeled compound 2, (Z)-Ethyl-2-(4-((5-(3-(^125I)iodophenyl)furan-2-yl)methylene)-5-oxo-2-thioxoimidazolidin-l-yl) acetate]
Radioactivity of eluted fraction: aggregated tau vs non aggregated tau vs buffer [1]: specifically binding to a tau protein aggregate
Amount of radioactivity in organ: Blood [2, 4]: 9.49 ± 0.82 % ID/g
Amount of radioactivity in organ: Blood [2, 5]: 2.38 ± 0.88 % ID/g
Amount of radioactivity in organ: Blood [2, 6]: 1.79 ± 0.11 % ID/g
Amount of radioactivity in organ: Blood [2, 7]: 1.50 ± 0.10 % ID/g
Amount of radioactivity in organ: Brain [2, 4]: 0.57 ± 0.07 % ID/g
Amount of radioactivity in organ: Brain [2, 5]: 0.32 ± 0.02 % ID/g
Amount of radioactivity in organ: Brain [2, 6]: 0.18 ± 0.02 % ID/g
Amount of radioactivity in organ: Brain [2, 7]: 0.10 ± 0.03 % ID/g
Amount of radioactivity in organ: Heart [2, 4]: 7.02 ± 1.23 % ID/g
Amount of radioactivity in organ: Heart [2, 5]: 2.05 ± 0.29 % ID/g
Amount of radioactivity in organ: Heart [2, 6]: 1.19 ± 0.39 % ID/g
Amount of radioactivity in organ: Heart [2, 7]: 1.44 ± 0.39 % ID/g
Amount of radioactivity in organ: Intestine [2, 4]: 1.85 ± 0.26 % ID/g
Amount of radioactivity in organ: Intestine [2, 5]: 7.88 ± 1.46 % ID/g
Amount of radioactivity in organ: Intestine [2, 6]: 17.7 ± 2.22 % ID/g
Amount of radioactivity in organ: Intestine [2, 7]: 23.4 ± 5.37 % ID/g
Amount of radioactivity in organ: Kidney [2, 4]: 9.21 ± 0.68 % ID/g
Amount of radioactivity in organ: Kidney [2, 5]: 9.11 ± 1.15 % ID/g
Amount of radioactivity in organ: Kidney [2, 6]: 3.86 ± 0.85 % ID/g
Amount of radioactivity in organ: Kidney [2, 7]: 2.68 ± 0.75 % ID/g
Amount of radioactivity in organ: Liver [2, 4]: 32.2 ± 1.67 % ID/g
Amount of radioactivity in organ: Liver [2, 5]: 32.1 ± 2.09 % ID/g
Amount of radioactivity in organ: Liver [2, 6]: 22.6 ± 3.42 % ID/g
Amount of radioactivity in organ: Liver [2, 7]: 20.2 ± 1.93 % ID/g
Amount of radioactivity in organ: Lung [2, 4]: 10.8 ± 1.28 % ID/g
Amount of radioactivity in organ: Lung [2, 5]: 3.89 ± 0.32 % ID/g
Amount of radioactivity in organ: Lung [2, 6]: 2.09 ± 0.43 % ID/g
Amount of radioactivity in organ: Lung [2, 7]: 1.70 ± 0.45 % ID/g
Amount of radioactivity in organ: Pancreas [2, 4]: 1.79 ± 0.27 % ID/g
Amount of radioactivity in organ: Pancreas [2, 5]: 0.98 ± 0.08 % ID/g
Amount of radioactivity in organ: Pancreas [2, 6]: 0.56 ± 0.10 % ID/g
Amount of radioactivity in organ: Pancreas [2, 7]: 0.45 ± 0.08 % ID/g
Amount of radioactivity in organ: Spleen [2, 4]: 9.16 ± 2.04 % ID/g
Amount of radioactivity in organ: Spleen [2, 5]: 12.2 ± 2.28 % ID/g
Amount of radioactivity in organ: Spleen [2, 6]: 13.6 ± 4.29 % ID/g
Amount of radioactivity in organ: Spleen [2, 7]: 10.0 ± 2.49 % ID/g
Amount of radioactivity in organ: Stomach [2, 4]: 0.93 ± 0.36 % ID/g
Amount of radioactivity in organ: Stomach [2, 5]: 3.39 ± 3.03 % ID/g
Amount of radioactivity in organ: Stomach [2, 6]: 3.39 ± 2.98 % ID/g
Amount of radioactivity in organ: Stomach [2, 7]: 5.32 ± 2.68 % ID/g
Binding to the Aβ42 aggregate (proportion of radioactivity count on the filter) [3]: significantly lower

CN(C)c1ccc(/C=C/C(=O)c2ccc(I)cc2)cc1 [chalcone derivative, 4-dimethylamino-4′-iodochalcone, reference compound]
Binding to the Aβ42 aggregate (proportion of radioactivity count on the filter) [3]: exhibited binding to the Aβ42 aggregate

Source: patent publication US8476449B2, “Radioactive iodine labeled organic compound or salt thereof” (Nihon Medi-Physics Co., Ltd., priority 2010, dated 2013)
